Test results taken from patent US8436031B2 (priority 2004, dated 2013).

Columns and labels:
SoxS = SoxS (Escherichia coli, UniProt P0A9E2); assay: Chemiluminescence DNA binding assay, SoxS; parameters: species or system E. coli; settings: for EC50 for SoxS compared with ARD: relative to ARD; for EC50: E. coli SoxS, DNA binding
SlyA = SlyA (Salmonella typhimurium, UniProt P40676); assay: Chemiluminescence DNA binding assay, SlyA (MarR protein control); parameters: species or system S. typhimurium
MarA [1] = biological target: T1, MarA (Escherichia coli, UniProt P0ACH5); assay: Chemiluminescence DNA binding assay, MarA; settings: E. coli MarA
Target sequence in this assay (P0ACH5 whole entry): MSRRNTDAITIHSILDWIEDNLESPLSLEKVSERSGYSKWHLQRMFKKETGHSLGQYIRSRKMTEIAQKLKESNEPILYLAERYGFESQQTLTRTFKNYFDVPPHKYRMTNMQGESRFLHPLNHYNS

Rma = Rma (Salmonella typhimurium, UniProt H9L484); assay: Chemiluminescence DNA binding assay, Rma; parameters: species or system S. typhimurium
PqrA = PqrA (Proteus mirabilis, UniProt B4ETM4); assay: Chemiluminescence DNA binding assay, PqrA; settings: P. mirabilis PqrA
Rob = Rob (Escherichia coli, UniProt P0ACI0); assay: Chemiluminescence DNA binding assay, Rob; settings: E. coli Rob
LcrF (VirF) = LcrF (VirF) (Yersinia pseudotuberculosis, UniProt Q663J0); assay: biochemical; assay type: binding, Y. pseudotuberculosis
ExsA = ExsA (Pseudomonas aeruginosa, UniProt P26993); assay: Chemiluminescence DNA binding assay, ExsA; parameters: species or system P. aeruginosa
[2] = In vivo toxicity, repeat dose experiments; settings: mice; subcutaneous 25 mg/Kg, two doses on day 1, single dose on days 2-5
Method: The in vivo toxicity of Mar inhibitors ATB, BAB, BAF, BBP and BBS were investigated in repeat dose experiments. Mice were given two subcutaneous doses (25 mg/Kg) of a Mar inhibitor on day 1 and a single dose of the compound on days 2-5.

MarA [3] = biological target: T1, MarA; assay: Selective marker (ccdB) under MarA-activated promoter; cell survival under MarA expression (Example 2); assay type: cell-based; parameters: key: *: good inhibition of MarA; **: very good inhibition of MarA; settings: inhibition of MarA; cell survival under conditions of MarA expression
Text: In this example, the expression of a selective marker (e.g., ccdB) is put under the direct control of a promoter activated by MarA (e.g., inaA, galT, or micF). In the absence of MarA, the expression of the selective marker is silent and cells survive. Synthesis of MarA from an inducible plasmid in a bacterial or yeast cell leads to the activation of the inaA promoter, expression of ccdB, and subsequently results in cell death. Compounds that inhibit MarA are those that permit cell survival under conditions of MarA expression. In Table 4, * indicates good inhibition of MarA and ** indicates very good inhibition of MarA.
Target sequence in this assay (P0ACH5 whole entry, looked up): as the sequence (P0ACH5 whole entry) above

Chain of LcrF (VirF) (Q663J0 1-271): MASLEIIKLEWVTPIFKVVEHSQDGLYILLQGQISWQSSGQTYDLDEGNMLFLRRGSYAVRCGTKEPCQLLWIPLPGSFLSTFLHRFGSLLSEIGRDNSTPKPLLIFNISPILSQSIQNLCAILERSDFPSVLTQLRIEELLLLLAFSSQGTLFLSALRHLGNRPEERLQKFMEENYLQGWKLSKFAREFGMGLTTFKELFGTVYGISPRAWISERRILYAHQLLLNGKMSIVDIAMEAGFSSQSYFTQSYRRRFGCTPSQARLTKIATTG
Chain of SoxS (P0A9E2 whole entry): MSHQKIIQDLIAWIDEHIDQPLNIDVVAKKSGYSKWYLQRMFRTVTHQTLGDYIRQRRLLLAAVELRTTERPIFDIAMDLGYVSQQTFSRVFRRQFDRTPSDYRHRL
Chain of Rob (P0ACI0 whole entry): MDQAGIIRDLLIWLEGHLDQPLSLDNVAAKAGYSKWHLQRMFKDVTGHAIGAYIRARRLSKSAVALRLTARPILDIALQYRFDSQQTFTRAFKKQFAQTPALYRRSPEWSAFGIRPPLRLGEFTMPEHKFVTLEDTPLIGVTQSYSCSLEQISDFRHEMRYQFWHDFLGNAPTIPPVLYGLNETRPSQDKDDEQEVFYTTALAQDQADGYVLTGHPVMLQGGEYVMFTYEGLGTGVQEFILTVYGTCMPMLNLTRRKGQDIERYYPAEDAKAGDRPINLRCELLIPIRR
Chain of Rma (H9L484 whole entry): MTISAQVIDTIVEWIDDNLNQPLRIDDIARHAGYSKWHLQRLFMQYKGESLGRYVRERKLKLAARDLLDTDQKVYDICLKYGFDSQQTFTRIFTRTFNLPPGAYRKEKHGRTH
Chain of SlyA (P40676 whole entry): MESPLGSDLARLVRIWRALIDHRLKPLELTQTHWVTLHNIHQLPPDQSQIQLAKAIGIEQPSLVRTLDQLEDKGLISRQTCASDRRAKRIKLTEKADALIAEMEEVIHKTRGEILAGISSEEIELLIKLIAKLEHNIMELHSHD
Chain of ExsA (P26993 whole entry): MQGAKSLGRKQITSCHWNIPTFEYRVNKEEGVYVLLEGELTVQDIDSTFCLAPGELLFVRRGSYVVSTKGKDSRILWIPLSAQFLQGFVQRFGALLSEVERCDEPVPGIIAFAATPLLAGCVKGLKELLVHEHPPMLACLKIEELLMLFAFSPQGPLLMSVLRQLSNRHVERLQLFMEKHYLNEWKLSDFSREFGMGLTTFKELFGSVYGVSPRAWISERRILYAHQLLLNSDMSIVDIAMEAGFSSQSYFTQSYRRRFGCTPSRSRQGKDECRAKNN
Chain of PqrA (B4ETM4 entry or part of it): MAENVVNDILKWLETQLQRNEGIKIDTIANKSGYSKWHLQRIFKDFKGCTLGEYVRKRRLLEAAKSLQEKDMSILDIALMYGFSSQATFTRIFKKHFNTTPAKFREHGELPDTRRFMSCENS

## O=[N+](O)c1cccc2c1nc(-c1ccco1)n2O [AQV]
SoxS
  EC50 for SoxS compared with ARD: higher than that of ARD

## CN(C)c1ccc(C(=O)Nc2ccc(-c3nc4ccc([N+](=O)[O-])cc4n3O)cc2)cc1 [ATE]
SlyA
  EC50: 14.3 µM
MarA [1]
  EC50: 1.2 µM
Rma
  EC50: 1.8 µM
SoxS
  EC50: 0.82 µM
PqrA
  EC50: 1.4 µM
Rob
  EC50: 1.3 µM
LcrF (VirF)
  EC50: 36.5 µM
ExsA
  EC50: 1.9 µM

## O=[N+]([O-])c1ccc2nc(-c3ccco3)n(O)c2c1 [AOX]
SoxS
  EC50 for SoxS compared with ARD: higher than that of ARD

## O=[N+]([O-])c1ccc2nc(-c3ccc(-c4ccccc4)o3)n(O)c2c1 [ARD]
SlyA
  EC50: 11.9 µM
MarA [1]
  EC50: 11.7 µM
Rma
  EC50: 17 µM
SoxS
  EC50: 8.3 µM
PqrA
  EC50: 13.6 µM
Rob
  EC50: 28 µM
ExsA
  EC50: 15.6 µM

## Cc1cccc(C(=O)Nc2ccc(-c3nc4ccc([N+](=O)[O-])cc4n3O)cc2)c1 [BBT]
LcrF (VirF)
  EC50: 27.5 µM

## O=C(Nc1ccc(-c2nc3ccc([N+](=O)[O-])cc3n2O)cc1)c1ccc(F)cc1 [ASU]
SlyA
  EC50: 51 µM
Rma
  EC50: 4.9 µM
SoxS
  EC50: 3 µM
Rob
  EC50: 4.7 µM
LcrF (VirF)
  EC50: 17.7 µM
ExsA
  EC50: 4 µM

## COc1cccc(-c2nc3ccc([N+](=O)[O-])cc3n2O)c1 [ANU]
SoxS
  EC50 for SoxS compared with ARD: higher than that of ARD

## COc1ccc(C(=O)Nc2ccc(-c3nc4ccc([N+](=O)[O-])cc4n3O)cc2)cc1 [ASR]
LcrF (VirF)
  EC50: 18.3 µM

## O=C(Nc1ccc(-c2nc3ccc([N+](=O)[O-])cc3n2O)cc1)c1cccc(Cl)c1 [ASX]
SlyA
  EC50: 21.7 µM
Rma
  EC50: 3.5 µM
SoxS
  EC50: 4.9 µM
Rob
  EC50: 3.4 µM
ExsA
  EC50: 2.5 µM

## Cc1ccccc1C(=O)Nc1ccc(-c2nc3ccc([N+](=O)[O-])cc3n2O)cc1 [BBV]
LcrF (VirF)
  EC50: > 57.9 µM

## Cc1ccc(C(=O)Nc2ccc(-c3nc4ccc([N+](=O)[O-])cc4n3O)cc2)cc1 [ATB]
[2]
  in vivo toxicity: No overt signs of toxicity
SoxS
  EC50: 2.7 µM
Rob
  EC50: 7.4 µM
LcrF (VirF)
  EC50: 15.5 µM
ExsA
  EC50: 4 µM

## COc1ccc(/C=C/C(=O)Nc2ccc(-c3nc4ccc([N+](=O)[O-])cc4n3O)cc2)cc1 [BCL]
LcrF (VirF)
  EC50: 5.1 µM

## N#Cc1ccc(C(=O)Nc2ccc(-c3nc4ccc([N+](=O)[O-])cc4n3O)cc2)cc1 [BAB]
[2]
  in vivo toxicity: No overt signs of toxicity

## O=C(Nc1ccc(-c2nc3ccc([N+](=O)[O-])cc3n2O)cc1)c1ccc(Cl)cc1 [AST]
SoxS
  EC50 for SoxS compared with ARD: higher than that of ARD

## CC(=O)c1ccc(C(=O)Nc2ccc(-c3nc4ccc([N+](=O)[O-])cc4n3O)cc2)cc1 [BAF]
[2]
  in vivo toxicity: No overt signs of toxicity

## Cc1ccc(/C=C/C(=O)Nc2ccc(-c3nc4ccc([N+](=O)[O-])cc4n3O)cc2)cc1 [BCK]
LcrF (VirF)
  EC50: 0.8 µM

## O=C(Nc1ccc(-c2nc3ccc([N+](=O)[O-])cc3n2O)cc1)c1cccc(F)c1 [BBS]
[2]
  in vivo toxicity: No overt signs of toxicity
LcrF (VirF)
  EC50: 29 µM

## O=C(Nc1ccc(-c2nc3ccc([N+](=O)[O-])cc3n2O)cc1)c1ccccc1 [AQQ]
SoxS
  EC50 for SoxS compared with ARD: higher than that of ARD

## O=C(Nc1ccc(-c2nc3ccc([N+](=O)[O-])cc3n2O)cc1)c1ccccc1F [BBW]
LcrF (VirF)
  EC50: > 57.3 µM

## O=[N+]([O-])c1ccc2nc(-c3ccccc3)n(OCc3ccccc3)c2c1 [AI, 1-Benzyloxy-6-nitro-2-phenyl-1H-benzoimidazole]
MarA [3]
  MarA inhibition score (cell survival): **

## O=c1/c(=C/c2c[nH]nc2-c2ccccc2)sc2nc3ccccc3n12 [M, 2-(3-Phenyl-1H-pyrazol-4-ylmethylene)-benzo[4,5]imidazo[2,1-b]thiazol-3-one]
MarA [3]
  MarA inhibition score (cell survival): **

## NC(=O)c1ccc2nc(-c3ccccc3)n(O)c2c1 [APJ]
SoxS
  EC50 for SoxS compared with ARD: higher than that of ARD

## O=C(NCc1ccc(-c2nc3ccc([N+](=O)[O-])cc3n2O)cc1)c1ccccc1 [ASS]
SoxS
  EC50 for SoxS compared with ARD: higher than that of ARD

## O=C(O)COn1c(-c2ccccc2)nc2ccc([N+](=O)[O-])cc21 [AH, (6-Nitro-2-phenyl-benzoimidazol-1-yloxy)-acetic acid]
MarA [3]
  MarA inhibition score (cell survival): **

## CCOc1ccc(C2Nc3ccccc3-c3nnc(SC)nc3O2)cc1 (stereo not shown) [B, 6-(4-Ethoxy-phenyl)-3-methylsulfanyl-6,7-dihydro-5-oxa-1,2,4,7-tetraaza-dibenzo[a,c]cycloheptene]
MarA [3]
  MarA inhibition score (cell survival): *

## COc1ccc2c(=O)cc(-c3ccccc3)oc2c1 [BA, 7-methoxy-2-phenyl-4H-chromen-4-one]
MarA [3]
  MarA inhibition score (cell survival): *

## CSc1nnc2c(n1)OC(c1ccc([N+](=O)[O-])o1)Nc1ccccc1-2 (stereo not shown) [C, 3-Methylsulfanyl-6-(5-nitro-furan-2-yl)-6,7-dihydro-5-oxa-1,2,4,7-tetraaza-dibenzo[a,c]cycloheptene]
MarA [3]
  MarA inhibition score (cell survival): *

## CCOC(=O)C1=C(C)N=c2s/c(=C/c3ccc(-c4ccc(C)c([N+](=O)[O-])c4)o3)c(=O)n2C1c1ccc(N(C)C)cc1 (stereo not shown) [X, 5-(4-Dimethylamino-phenyl)-7-methyl-2-[5-(4-methyl-3-nitro-phenyl)-furan-2-ylmethylene]-3-oxo-2,3-dihydro-5H-thiazolo[3,2-a]pyrimidine-6-carboxylic acid ethyl ester]
MarA [3]
  MarA inhibition score (cell survival): **

## O=C(/C=C/c1ccc(F)cc1)Nc1ccc(-c2nc3ccc([N+](=O)[O-])cc3n2O)cc1 [BBP]
[2]
  in vivo toxicity: No overt signs of toxicity
LcrF (VirF)
  EC50: 7.1 µM

## CCOC(=O)C(C(N)=O)C1(O)OC(c2ccc(C)cc2)=CC1=O (stereo not shown) [BC, 2-(2-Hydroxy-3-oxo-5-p-tolyl-2,3-dihydro-furan-2-yl)-malonamic acid ethyl ester]
MarA [3]
  MarA inhibition score (cell survival): *

## O=[N+]([O-])c1ccc2nc(-c3ccoc3)n(O)c2c1 [AOW]
SoxS
  EC50 for SoxS compared with ARD: higher than that of ARD

## CCCSc1nnc2c(n1)OC(c1ccc(-c3cccc([N+](=O)[O-])c3)o1)Nc1ccccc1-2 (stereo not shown) [L, 6-[5-(3-Nitro-phenyl)-furan-2-yl]-3-propylsulfanyl-6,7-dihydro-5-oxa-1,2,4,7-tetraaza-dibenzo[a,c]cycloheptene]
MarA [3]
  MarA inhibition score (cell survival): **

## O=C(/C=C/c1ccc(F)cc1F)Nc1ccc(-c2nc3ccc([N+](=O)[O-])cc3n2O)cc1 [BCO]
LcrF (VirF)
  EC50: 2.2 µM

## O=c1cc(-c2ccccc2)oc2ccc(F)cc12 [AZ, 6-fluoro-2-phenyl-4H-chromen-4-one]
MarA [3]
  MarA inhibition score (cell survival): **

## O=C1C(=C2NC(c3ccccn3)C3C(=O)N(c4ccccc4)C(=O)C23)C(=O)c2ccccc21 (stereo not shown) [BB, 4-(1,3-dioxo-1,3-dihydro-2H-inden-2-yliden)-2-phenyl-6-(2-pyridinyl)tetrahydro pyrrolo[3,4-c]pyrrole-1,3(2H,3aH)-dione]
MarA [3]
  MarA inhibition score (cell survival): *

## O=c1cc(-c2ccc(F)cc2)oc2ccccc12 [BE, 2-(4-fluorophenyl)-4H-chromen-4-one]
MarA [3]
  MarA inhibition score (cell survival): *

## O=c1cc(-c2ccc(O)cc2)oc2ccccc12 [BG, 2-(4-hydroxyphenyl)-4H-chromen-4-one]
MarA [3]
  MarA inhibition score (cell survival): *

## CN(C)c1ccc(-c2nc3ccc([N+](=O)[O-])cc3n2O)cc1 [ARB]
SoxS
  EC50 for SoxS compared with ARD: higher than that of ARD

## CSc1cccc(NC(=O)CSc2nnc(-c3ccc4nonc4c3)n2C)c1 [AE, 2-(5-Benzo[1,2,5]oxadiazol-5-yl-4-methyl-4H-[1,2,4]triazol-3-ylsulfanyl)-N-(3-methylsulfanyl-phenyl)-acetamide]
MarA [3]
  MarA inhibition score (cell survival): *
